System: 922993-354-T-J3-PDC complex spheroid viability
Assay: Anticancer human tumor 922993-354-T-J3-PDC patient-derived endometrial carcinoma cell line growth inhibition [POLQ]
Settings: for IC50: curve of first compound; for viability, T/C: stronger effect = lower value
How it was run: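 Three-cell-type spheroids modelling solid tumor plus stroma served as the readout system; POL inhibitors were tested individually and in combination, concentration ranges set by clinical Cmax where known.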

[1] = second compound 0.0316 µM, first compound 0.0316 µM
[2] = second compound 0.0316 µM, first compound 0.1 µM
[3] = second compound 0.0316 µM, first compound 0.316 µM
[4] = second compound 0.0316 µM, first compound 1 µM
[5] = second compound 0.1 µM, first compound 0.0316 µM
[6] = second compound 0.1 µM, first compound 0.1 µM
[7] = second compound 0.1 µM, first compound 0.316 µM
[8] = second compound 0.1 µM, first compound 1 µM
[9] = second compound 0.316 µM, first compound 0.0316 µM
[10] = second compound 0.316 µM, first compound 0.1 µM
[11] = second compound 0.316 µM, first compound 0.316 µM
[12] = second compound 0.316 µM, first compound 1 µM
[13] = second compound 1 µM, first compound 0.0316 µM
[14] = second compound 1 µM, first compound 0.1 µM
[15] = second compound 1 µM, first compound 0.316 µM
[16] = second compound 1 µM, first compound 1 µM
[17] = second compound 3.16 µM, first compound 0.0316 µM
[18] = second compound 3.16 µM, first compound 0.1 µM
[19] = second compound 3.16 µM, first compound 0.316 µM
[20] = second compound 3.16 µM, first compound 1 µM
[21] = second compound 10 µM, first compound 0.0316 µM
[22] = second compound 10 µM, first compound 0.1 µM
[23] = second compound 10 µM, first compound 0.316 µM
[24] = second compound 10 µM, first compound 1 µM
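Further: spheroids exposed to the agents for one week.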
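Wherever viability, T/C is given: 100% = DMSO vehicle control wells.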

SMILES: CCc1c2c(nc3ccc(O)cc13)-c1cc3c(c(=O)n1C2)COC(=O)[C@]3(O)CC + Nc1ccc(C#CCN(C(=O)Cc2ncc(C(F)(F)F)cc2C(F)(F)F)c2ccc(F)cc2)nn1
- IC50 (second compound 0.0316 µM): 0.0279 µM
- IC50 (second compound 0.1 µM): 0.0262 µM
- IC50 (second compound 0.316 µM): 0.031 µM
- IC50 (second compound 1 µM): 0.0322 µM
- IC50 (second compound 3.16 µM): 0.0221 µM
- IC50 (second compound 10 µM): 0.0144 µM
- viability, T/C (second compound 0.0316 µM, first compound 0.00316 µM): 99%
- viability, T/C (second compound 0.0316 µM, first compound 0.01 µM): 91.1%
- viability, T/C [1]: 45.5%
- viability, T/C [2]: 20.1%
- viability, T/C [3]: 18.8%
- viability, T/C [4]: 26.7%
- viability, T/C (second compound 0.1 µM, first compound 0.00316 µM): 100%
- viability, T/C (second compound 0.1 µM, first compound 0.01 µM): 88.8%
- viability, T/C [5]: 43.3%
- viability, T/C [6]: 17.9%
- viability, T/C [7]: 19.8%
- viability, T/C [8]: 24.8%
- viability, T/C (second compound 0.316 µM, first compound 0.00316 µM): 104%
- viability, T/C (second compound 0.316 µM, first compound 0.01 µM): 92.2%
- viability, T/C [9]: 50.3%
- viability, T/C [10]: 20.3%
- viability, T/C [11]: 16.8%
- viability, T/C [12]: 26.6%
- viability, T/C (second compound 1 µM, first compound 0.00316 µM): 102%
- viability, T/C (second compound 1 µM, first compound 0.01 µM): 88.9%
- viability, T/C [13]: 52.4%
- viability, T/C [14]: 18.4%
- viability, T/C [15]: 17.7%
- viability, T/C [16]: 25.9%
- viability, T/C (second compound 3.16 µM, first compound 0.00316 µM): 95.6%
- viability, T/C (second compound 3.16 µM, first compound 0.01 µM): 76.3%
- viability, T/C [17]: 39.7%
- viability, T/C [18]: 17.4%
- viability, T/C [19]: 18.2%
- viability, T/C [20]: 27.7%
- viability, T/C (second compound 10 µM, first compound 0.00316 µM): 87%
- viability, T/C (second compound 10 µM, first compound 0.01 µM): 63.9%
- viability, T/C [21]: 16.1%
- viability, T/C [22]: 16.3%
- viability, T/C [23]: 20.1%
- viability, T/C [24]: 29.6%

SMILES: O=c1[nH]cc(F)c(=O)[nH]1 + Nc1ccc(C#CCN(C(=O)Cc2ncc(C(F)(F)F)cc2C(F)(F)F)c2ccc(F)cc2)nn1
- IC50 (second compound 0.0316 µM): 5.83 µM
- IC50 (second compound 0.1 µM): 5.94 µM
- IC50 (second compound 0.316 µM): 5.66 µM
- IC50 (second compound 1 µM): 5.75 µM
- IC50 (second compound 3.16 µM): 5.48 µM
- IC50 (second compound 10 µM): 5.32 µM
- viability, T/C [1]: 103%
- viability, T/C [2]: 105%
- viability, T/C [3]: 105%
- viability, T/C [4]: 103%
- viability, T/C (second compound 0.0316 µM, first compound 3.16 µM): 79.9%
- viability, T/C (second compound 0.0316 µM, first compound 10 µM): 23.6%
- viability, T/C [5]: 106%
- viability, T/C [6]: 103%
- viability, T/C [7]: 104%
- viability, T/C [8]: 102%
- viability, T/C (second compound 0.1 µM, first compound 3.16 µM): 80.7%
- viability, T/C (second compound 0.1 µM, first compound 10 µM): 24.6%
- viability, T/C [9]: 104%
- viability, T/C [10]: 104%
- viability, T/C [11]: 104%
- viability, T/C [12]: 99.6%
- viability, T/C (second compound 0.316 µM, first compound 3.16 µM): 76.8%
- viability, T/C (second compound 0.316 µM, first compound 10 µM): 23.8%
- viability, T/C [13]: 103%
- viability, T/C [14]: 98.5%
- viability, T/C [15]: 103%
- viability, T/C [16]: 102%
- viability, T/C (second compound 1 µM, first compound 3.16 µM): 82.4%
- viability, T/C (second compound 1 µM, first compound 10 µM): 19.8%
- viability, T/C [17]: 99.8%
- viability, T/C [18]: 103%
- viability, T/C [19]: 100%
- viability, T/C [20]: 102%
- viability, T/C (second compound 3.16 µM, first compound 3.16 µM): 75.7%
- viability, T/C (second compound 3.16 µM, first compound 10 µM): 21.9%
- viability, T/C [21]: 98.6%
- viability, T/C [22]: 101%
- viability, T/C [23]: 100%
- viability, T/C [24]: 96.6%
- viability, T/C (second compound 10 µM, first compound 3.16 µM): 77.4%
- viability, T/C (second compound 10 µM, first compound 10 µM): 17.3%

SMILES: CC(=O)O[C@H]1C(=O)[C@@]2(C)[C@H]([C@H](OC(=O)c3ccccc3)[C@]3(O)C[C@H](OC(=O)[C@H](O)[C@@H](NC(=O)c4ccccc4)c4ccccc4)C(C)=C1C3(C)C)[C@]1(OC(C)=O)CO[C@@H]1C[C@@H]2O + Cc1cccc(N(C)C(=O)C2C(O)CCN2c2nc(C)cc(C(F)(F)F)c2C#N)c1
- IC50 (second compound 0.0316 µM): > 3 µM
- IC50 (second compound 0.1 µM): > 3 µM
- IC50 (second compound 0.316 µM): > 3 µM
- IC50 (second compound 1 µM): > 3 µM
- IC50 (second compound 3.16 µM): > 3 µM
- IC50 (second compound 10 µM): > 3 µM
- viability, T/C (second compound 0.0316 µM, first compound 0.00949 µM): 100%
- viability, T/C (second compound 0.0316 µM, first compound 0.03 µM): 102%
- viability, T/C (second compound 0.0316 µM, first compound 0.0949 µM): 101%
- viability, T/C (second compound 0.0316 µM, first compound 0.3 µM): 103%
- viability, T/C (second compound 0.0316 µM, first compound 0.949 µM): 98.5%
- viability, T/C (second compound 0.0316 µM, first compound 3 µM): 76.6%
- viability, T/C (second compound 0.1 µM, first compound 0.00949 µM): 105%
- viability, T/C (second compound 0.1 µM, first compound 0.03 µM): 107%
- viability, T/C (second compound 0.1 µM, first compound 0.0949 µM): 99.4%
- viability, T/C (second compound 0.1 µM, first compound 0.3 µM): 99.8%
- viability, T/C (second compound 0.1 µM, first compound 0.949 µM): 98.9%
- viability, T/C (second compound 0.1 µM, first compound 3 µM): 66.9%
- viability, T/C (second compound 0.316 µM, first compound 0.00949 µM): 104%
- viability, T/C (second compound 0.316 µM, first compound 0.03 µM): 103%
- viability, T/C (second compound 0.316 µM, first compound 0.0949 µM): 99.9%
- viability, T/C (second compound 0.316 µM, first compound 0.3 µM): 103%
- viability, T/C (second compound 0.316 µM, first compound 0.949 µM): 95.5%
- viability, T/C (second compound 0.316 µM, first compound 3 µM): 73.3%
- viability, T/C (second compound 1 µM, first compound 0.00949 µM): 104%
- viability, T/C (second compound 1 µM, first compound 0.03 µM): 98.2%
- viability, T/C (second compound 1 µM, first compound 0.0949 µM): 99%
- viability, T/C (second compound 1 µM, first compound 0.3 µM): 101%
- viability, T/C (second compound 1 µM, first compound 0.949 µM): 91.8%
- viability, T/C (second compound 1 µM, first compound 3 µM): 64.8%
- viability, T/C (second compound 3.16 µM, first compound 0.00949 µM): 99.8%
- viability, T/C (second compound 3.16 µM, first compound 0.03 µM): 105%
- viability, T/C (second compound 3.16 µM, first compound 0.0949 µM): 100%
- viability, T/C (second compound 3.16 µM, first compound 0.3 µM): 95%
- viability, T/C (second compound 3.16 µM, first compound 0.949 µM): 70.5%
- viability, T/C (second compound 3.16 µM, first compound 3 µM): 63.5%
- viability, T/C (second compound 10 µM, first compound 0.00949 µM): 97.3%
- viability, T/C (second compound 10 µM, first compound 0.03 µM): 99.3%
- viability, T/C (second compound 10 µM, first compound 0.0949 µM): 75.5%
- viability, T/C (second compound 10 µM, first compound 0.3 µM): 66.7%
- viability, T/C (second compound 10 µM, first compound 0.949 µM): 63.3%
- viability, T/C (second compound 10 µM, first compound 3 µM): 48.7%

— PubChem BioAssay AID1963830 (Molecular Pharmacology Branch, DTP, NCI, 2024)
